PubChem BioAssay (NCI)
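Cultured in 96-well plates, cells were exposed to test compound for 48 hours across five concentrations. Here, GI50 denotes the concentration required for 50% inhibition of growth. TGI: concentration producing complete growth inhibition.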

How the values were obtained:
Test in all cases: NCI-60 cell line screen, 48 h
SNB-75 CNS = tested on: SNB-75 CNS
OVCAR-5 ovarian = tested on: OVCAR-5 ovarian
M14 melanoma = tested on: M14 melanoma
PC-3 prostate = tested on: PC-3 prostate
CCRF-CEM leukemia = tested on: CCRF-CEM leukemia
SF-295 CNS = tested on: SF-295 CNS
NCI-H522 lung = tested on: NCI-H522 lung
HCT-116 colon = tested on: HCT-116 colon
SW-620 colon = tested on: SW-620 colon
CAKI-1 renal = tested on: CAKI-1 renal

Structure (SMILES)	GI50 (SNB-75 CNS)	TGI (SNB-75 CNS)	GI50 (OVCAR-5 ovarian)	TGI (OVCAR-5 ovarian)	GI50 (M14 melanoma)	TGI (M14 melanoma)	GI50 (PC-3 prostate)	TGI (PC-3 prostate)	GI50 (CCRF-CEM leukemia)	TGI (CCRF-CEM leukemia)	GI50 (SF-295 CNS)	TGI (SF-295 CNS)	GI50 (NCI-H522 lung)	TGI (NCI-H522 lung)	GI50 (HCT-116 colon)	TGI (HCT-116 colon)	GI50 (SW-620 colon)	TGI (SW-620 colon)	GI50 (CAKI-1 renal)	TGI (CAKI-1 renal)
Cc1cc(C)c(NC(=O)c2sc3nc4c(cc3c2N)C(=O)CCC4)c(C)c1	2.28 µM	> 100 µM	7.98 µM	> 100 µM	2.31 µM	> 100 µM	1.96 µM	> 100 µM	3.15 µM	> 100 µM	0.755 µM	> 100 µM	0.6 µM	3.06 µM	3.85 µM	> 100 µM	2.87 µM	> 100 µM	2.66 µM	> 100 µM
COc1ccc(C[N+](C)(C)N)cc1OC	> 100 µM	> 100 µM	> 100 µM	> 100 µM	> 100 µM	> 100 µM	> 100 µM	> 100 µM	> 100 µM	> 100 µM	> 100 µM	> 100 µM	> 100 µM	> 100 µM	> 100 µM	> 100 µM	> 100 µM	> 100 µM	> 100 µM	> 100 µM
CC(=O)O[C@H]1CCC2[C@@H]3CC[C@]4(C)CC(=O)C=C[C@]4(C)C3CC[C@@]21C (stereo partly drawn)		> 93.1 µM		> 100 µM		34.1 µM		77.1 µM		57.9 µM		> 100 µM		76.9 µM		32.1 µM		33.8 µM		> 100 µM
CC/C=C\C[C@H](O)C/C=C1/C(=O)C=C[C@@H]1C/C=C\CCCC(=O)OC	11.7 µM	26 µM	2.7 µM	6.69 µM	1.32 µM	4.72 µM	2.7 µM	7.29 µM	0.368 µM	11.4 µM	2.26 µM	5.58 µM	1.03 µM	2.43 µM	0.572 µM	2.92 µM	0.784 µM	11.3 µM	3.11 µM	12.7 µM
COc1ccc(/C=C/c2c(C(=O)/C=C/c3ccccc3)c(C)nc3ccccc23)cc1	1.46 µM	4.44 µM	1.91 µM	3.65 µM	1.84 µM	4.44 µM	1.66 µM	3.81 µM	2.33 µM	> 100 µM	2.62 µM	7.46 µM	1.72 µM	4.83 µM	1.03 µM	2.6 µM	2.12 µM	6.34 µM	1.41 µM	2.82 µM
CCCC(CCC)NCC(O)c1cc(-c2ccc(C(F)(F)F)cc2)nc(C(F)(F)F)c1 (stereo not drawn)	1.72 µM	3.3 µM	1.55 µM	2.95 µM	1.75 µM	3.32 µM	1.75 µM	3.33 µM	2.46 µM	5.7 µM	1.99 µM	3.78 µM	1.71 µM	3.26 µM	1.66 µM	3.24 µM	1.57 µM	3.05 µM	1.94 µM	3.98 µM
COCC[C@H]1CCC/C=C/[C@@H]2C[C@H](O)C[C@H]2[C@H](O)/C=C/C(=O)O1	0.0423 µM	> 100 µM	0.247 µM	> 100 µM	0.0436 µM	> 100 µM	0.193 µM	> 100 µM	0.322 µM	> 100 µM	0.0796 µM	> 100 µM	0.21 µM	0.557 µM	0.149 µM	0.332 µM	0.0572 µM	0.258 µM	0.36 µM	
O=C(Nc1n[nH]c2cc(-c3ccccc3)ccc12)C1CC1	> 20.9 µM	> 25 µM	> 25 µM	> 25 µM	15.4 µM	> 25 µM	10.5 µM	> 25 µM	8.59 µM	> 25 µM	9.07 µM	> 25 µM	1.29 µM	> 25 µM	6.56 µM	> 25 µM	4.77 µM	> 25 µM	9.36 µM	> 25 µM
CC1=C(/C=C/Cl)CC(Cl)C(C)(Cl)C1 (stereo not drawn)		> 100 µM		> 100 µM		> 100 µM		> 100 µM		74.2 µM		> 100 µM		> 100 µM		> 100 µM		> 100 µM		> 100 µM
CCCCCCCCCCCCCCCC(=O)OCC(C[As](=O)(O)O)OC(=O)CCCCCCCCCCCCCCC (stereo not drawn)		> 96.7 µM		> 100 µM		> 100 µM		> 100 µM		> 100 µM		> 100 µM		> 100 µM		> 100 µM		> 100 µM		> 100 µM
O=c1cc(NCC(O)CN2CCCC2)n(Cc2ccccc2)c(=O)n1Cc1ccccc1 (stereo not drawn)	25.3 µM	81.5 µM	> 100 µM	> 100 µM			26.9 µM	84.1 µM	28.1 µM	80.6 µM	46.6 µM	> 100 µM	79.3 µM	> 100 µM	13.6 µM	33.3 µM	41.1 µM	> 100 µM	> 100 µM	> 100 µM
Cc1cc2nc(C=C(C(F)(F)F)C(F)(F)F)oc2cc1C		> 10 µM		7.03 µM		5.03 µM		5.08 µM		6.74 µM		> 10 µM		6.35 µM		2.72 µM		3.42 µM		7.23 µM
c1ccc(Sc2ccc(Cc3nc4cc5ccccc5cc4[nH]3)cc2)cc1	> 66.5 µM	> 100 µM	17.9 µM	98.8 µM	21 µM	> 74.5 µM	4.56 µM	> 64.3 µM	1.42 µM	> 59 µM	2.65 µM	34.7 µM	9.69 µM	> 62.9 µM	2.98 µM	20.7 µM	8.38 µM	> 67.6 µM	11.7 µM	48.8 µM
C=CCCCCC/C=C\[C@@H](O)C#CC#C/C=C/CO	0.536 µM	> 100 µM	> 100 µM	> 100 µM	> 100 µM	> 100 µM	28 µM	> 100 µM			> 100 µM	> 100 µM	26 µM	98.7 µM	45.7 µM	> 100 µM	48.2 µM	> 100 µM	> 100 µM	> 100 µM
CCCCC(CC)COC(=O)C[N+](C)(C)CCOC(c1ccccc1)c1ccccc1 (stereo not drawn)	2.13 µM	5.27 µM	4.11 µM	15.8 µM	1.63 µM	3.23 µM	3.21 µM	11.7 µM	3.17 µM	11.7 µM	9.63 µM	26.3 µM	1.75 µM	3.67 µM	1.8 µM	3.32 µM	1.97 µM	4.3 µM	16.8 µM	31.9 µM
OCC1OC(n2cnc3c2NC=NC[C@H]3O)C(Cl)C1O (stereo partly drawn)		> 100 µM		> 100 µM		> 100 µM		> 100 µM		> 100 µM		> 100 µM		> 100 µM		> 100 µM		> 100 µM		> 100 µM
CC(C)c1ccc(-c2cc(-c3cn[nH]c3-c3ccccn3)ccn2)cc1	> 9.11 µM	> 25 µM	> 16.6 µM	> 25 µM	14.4 µM	> 25 µM	9 µM	> 25 µM	10.8 µM	> 25 µM	7.68 µM	> 19.7 µM	6.82 µM	> 25 µM	10.3 µM	> 25 µM	18 µM	> 25 µM	19.1 µM	> 25 µM
COc1ccc(C2=C(Cl)c3cc(OC)c(OC)cc3C2Cl)cc1 (stereo not drawn)		8.46 µM		29.2 µM		37.1 µM		26.3 µM		21 µM		34.1 µM		> 27.5 µM		31.3 µM		32.9 µM		34.6 µM
CC(C)c1c(O)c(O)c2c(c1O)C(=O)C(O)=C1C(C)(C)CCC[C@@]12C		8.12 µM		19.5 µM		19.3 µM		11.8 µM		7.43 µM		12 µM		13.4 µM		11.2 µM		11.8 µM		6.34 µM
Cc1cc(C(=O)Nc2ccc3cc(CN4CCOCC4)ccc3n2)c(C)n1-c1ccccc1	3.42 µM	15.8 µM	10.2 µM	57.6 µM	1.81 µM	5.71 µM	1.34 µM	6.69 µM	1.86 µM	> 93.7 µM	1.99 µM	12.5 µM	2.67 µM	9.38 µM	1.68 µM	17.2 µM	4.18 µM	30.5 µM	1.5 µM	16.7 µM
CCNCCNc1cc(-c2ccc(C(F)(F)F)cc2)c(C#N)c2nc3ccccc3n12	1.23 µM	2.54 µM	1.94 µM	3.52 µM	1.66 µM	3.16 µM	1.54 µM	2.95 µM	0.266 µM	0.683 µM	1.83 µM	3.34 µM	1.82 µM	3.66 µM	0.388 µM	1.32 µM	1.22 µM	2.75 µM	1.11 µM	2.31 µM
COc1ccc(C(=O)c2cc(OC)c(OC)c(OC)c2)cc1/C=C/C(=O)c1ccc(F)cc1	3.18 µM	20.7 µM	2.67 µM	11.5 µM	3.39 µM	18 µM	3.3 µM	13.7 µM	2.24 µM	9.69 µM	7.21 µM	37.3 µM	2.02 µM	5.34 µM	1.75 µM	3.57 µM	2.53 µM	7.44 µM	2.78 µM	14.6 µM
COc1ccc(-c2nc3ccccn3c2/C=C/C(=O)c2cc(OC)c(OC)c(OC)c2)cc1OC	3.92 µM	> 100 µM	7.38 µM	53.3 µM	4.48 µM	45.1 µM	3.71 µM	> 100 µM	1.54 µM	> 100 µM	1.85 µM	4.42 µM	2.74 µM	35.5 µM	2.62 µM	12 µM	2.78 µM	55.6 µM	1.39 µM	20.2 µM
COc1ccc(-c2cc(-c3cc(C)cc(Br)c3O)no2)cc1		8.73 µM		88.9 µM		> 100 µM		33.5 µM				14.4 µM		30.2 µM		28.5 µM		> 100 µM		24 µM
NS(=O)(=O)c1ccc(-c2ccc3c(NC(=O)C4CC4)n[nH]c3c2)cc1	> 25 µM	> 25 µM	> 25 µM	> 25 µM	> 25 µM	> 25 µM	> 25 µM	> 25 µM	> 25 µM	> 25 µM	> 25 µM	> 25 µM	> 25 µM	> 25 µM	> 25 µM	> 25 µM	> 25 µM	> 25 µM	> 25 µM	> 25 µM
Nc1nc(Nc2cccnc2)sc1C(=O)c1ccccc1F	0.58 µM	4.74 µM	2.17 µM	7.61 µM	4.64 µM	20.2 µM	3.29 µM	> 100 µM	2.19 µM	> 21.9 µM	2.69 µM	> 26.9 µM	8.26 µM	> 64.1 µM	2.51 µM	> 100 µM	3.5 µM	> 42.6 µM	1.94 µM	6.86 µM
COC(=O)Nc1nc2ccc(C3(c4ccc(F)cc4)OCCO3)cc2[nH]1	0.262 µM	98.4 µM	0.614 µM	> 100 µM			0.341 µM	> 100 µM	0.337 µM	> 100 µM	0.272 µM	> 100 µM	0.222 µM	2.65 µM	0.409 µM	> 49.6 µM	0.311 µM	> 100 µM	0.462 µM	> 100 µM
CC12OC(C(=O)C13CC3)C1C(=O)c3ccc4c(ccc5ccccc54)c3C(=O)C12 (stereo not drawn)	51.3 µM	> 100 µM	30.1 µM	> 100 µM	25.2 µM	95 µM	19 µM	80.7 µM	29.5 µM	> 100 µM			51.3 µM	> 100 µM	43.7 µM	> 100 µM			19.7 µM	41.8 µM
